Assay results published in patent publication US20250230138A1, “COMPOUNDS HAVING A T-STRUCTURE FORMED BY AT LEAST FOUR CYCLES FOR USE IN THE TREATMENT OF CANCER AND OTHER INDICATIONS” (TheRas, Inc., priority 2022, published 2025).
Like-named read-outs stand apart in the source and are kept apart here.

Assays:
[1] = test system: pAKT in Tet-on KRAS G12D HeLa cells; assay: Cell-based pAKT HTRF assay in Tet-on KRAS G12D HeLa cells; details: Tet-on KRAS G12D HeLa cells; read-out: pAKT inhibition IC50 in Tet-on KRAS G12D HeLa cells
Experimental: To determine the effectiveness of compounds in disrupting PIK3CA/KRAS signaling in cells, we implemented pAKT HTRF assay (Perkin-Elmer) in Tet-on KRAS G12D HeLa cells.
On Day 1, cells were seeded into 96-well plates at 2×10^4 cells/well in complete growth media (DMEM, 10% Tet-Screened FBS) supplemented with 200 ng/mL doxycycline.
On Day 2, cells were treated with compounds at 0.25% DMSO. The source plate was created with compounds diluted in media at 5-fold the final assay concentration. The compounds are run in a 9-point concentration curve starting at 75 μM, with a 3-fold dilution between concentrations. […] 20 μL was transferred onto the cell plates (final volume in wells was 100 μL). Plates were harvested after 30 min and 4 hr incubation by aspirating media and adding kit-supplied 1× supplemented lysis buffer to all wells (50 μL per well). This then changed to 4 hr only when compounds became covalent. Plates were then placed on a plate shaker and incubated at 850 rpm for an additional 30 min. The antibody mixture solution was prepared by diluting aliquoted d2 and Eu Cryptate antibodies 1:20 in kit supplied detection buffer, then mixed the diluted antibodies solutions (1:1 v:v). 4 μL of this solution was then added to a 384-well detection plate (Perkin Elmer; 6008230). Samples were homogenized by pipetting up and down and then transferred (16 μL of cell lysates) from the 96-well cell culture plate to two wells of the HTRF 384-well detection plate containing the antibody solution. Plates were centrifuged (524 g for 1 min) and allowed to incubate between 4 and 24 h at room temperature. The maximum signal is reached after 4 h incubation time and remains stable over a period of 24 hours. Therefore, readings can be made between 4 and 24 h of incubation. Plates were centrifuged again (524 g for 1 min), and analyzed on the EnVision plate reader using the following settings: Excitation 320 nm, Bandwidth […]; Emission 615 nm, Bandwidth […], Gain 100%, Flashes 100, Lag 60 μs.

[2] = biological target: KRAS-PI3Kα interaction (KRAS-Q25A binding to avi-tagged full length PI3Kα) (Homo sapiens (Human), UniProt P42336); assay: Disrupting KRAS-PI3Kα interaction by SPR inhibition assay; details: KRAS-Q25A at 20 μM, 25° C.
KRAS-PI3Kα interaction (KRAS-Q25A binding to avi-tagged full length PI3Kα), sequence (P42336 whole entry, looked up, stated change not applied): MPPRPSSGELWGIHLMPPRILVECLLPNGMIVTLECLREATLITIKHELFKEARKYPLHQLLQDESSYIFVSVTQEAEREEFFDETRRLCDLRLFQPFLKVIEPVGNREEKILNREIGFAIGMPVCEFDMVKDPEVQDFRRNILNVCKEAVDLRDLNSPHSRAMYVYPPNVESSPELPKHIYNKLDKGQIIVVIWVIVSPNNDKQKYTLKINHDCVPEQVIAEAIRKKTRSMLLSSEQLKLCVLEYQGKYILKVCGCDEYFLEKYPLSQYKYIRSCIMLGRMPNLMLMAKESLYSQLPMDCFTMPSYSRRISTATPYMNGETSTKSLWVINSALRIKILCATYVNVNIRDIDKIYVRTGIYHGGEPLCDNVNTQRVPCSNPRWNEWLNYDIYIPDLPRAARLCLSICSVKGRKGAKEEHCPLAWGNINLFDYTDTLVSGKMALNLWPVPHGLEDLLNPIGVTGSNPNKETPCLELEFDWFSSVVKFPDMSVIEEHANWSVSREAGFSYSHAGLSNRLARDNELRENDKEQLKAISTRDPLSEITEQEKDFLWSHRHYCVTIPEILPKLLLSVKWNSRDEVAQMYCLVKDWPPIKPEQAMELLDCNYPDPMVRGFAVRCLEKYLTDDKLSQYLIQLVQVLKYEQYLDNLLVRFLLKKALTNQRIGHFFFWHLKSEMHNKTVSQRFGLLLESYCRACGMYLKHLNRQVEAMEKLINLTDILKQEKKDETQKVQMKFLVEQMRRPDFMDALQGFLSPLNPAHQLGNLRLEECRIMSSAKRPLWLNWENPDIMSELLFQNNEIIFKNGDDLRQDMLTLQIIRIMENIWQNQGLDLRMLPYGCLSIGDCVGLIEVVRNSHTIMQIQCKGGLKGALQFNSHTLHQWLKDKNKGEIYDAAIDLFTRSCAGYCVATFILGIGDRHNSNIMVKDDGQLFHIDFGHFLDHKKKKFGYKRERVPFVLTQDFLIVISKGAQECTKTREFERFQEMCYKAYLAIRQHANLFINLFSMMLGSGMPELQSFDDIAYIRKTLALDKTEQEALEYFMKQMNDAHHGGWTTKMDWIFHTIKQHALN
KRAS-PI3Kα interaction (KRAS-Q25A binding to avi-tagged full length PI3Kα), sequence (P27986 whole entry partner, looked up): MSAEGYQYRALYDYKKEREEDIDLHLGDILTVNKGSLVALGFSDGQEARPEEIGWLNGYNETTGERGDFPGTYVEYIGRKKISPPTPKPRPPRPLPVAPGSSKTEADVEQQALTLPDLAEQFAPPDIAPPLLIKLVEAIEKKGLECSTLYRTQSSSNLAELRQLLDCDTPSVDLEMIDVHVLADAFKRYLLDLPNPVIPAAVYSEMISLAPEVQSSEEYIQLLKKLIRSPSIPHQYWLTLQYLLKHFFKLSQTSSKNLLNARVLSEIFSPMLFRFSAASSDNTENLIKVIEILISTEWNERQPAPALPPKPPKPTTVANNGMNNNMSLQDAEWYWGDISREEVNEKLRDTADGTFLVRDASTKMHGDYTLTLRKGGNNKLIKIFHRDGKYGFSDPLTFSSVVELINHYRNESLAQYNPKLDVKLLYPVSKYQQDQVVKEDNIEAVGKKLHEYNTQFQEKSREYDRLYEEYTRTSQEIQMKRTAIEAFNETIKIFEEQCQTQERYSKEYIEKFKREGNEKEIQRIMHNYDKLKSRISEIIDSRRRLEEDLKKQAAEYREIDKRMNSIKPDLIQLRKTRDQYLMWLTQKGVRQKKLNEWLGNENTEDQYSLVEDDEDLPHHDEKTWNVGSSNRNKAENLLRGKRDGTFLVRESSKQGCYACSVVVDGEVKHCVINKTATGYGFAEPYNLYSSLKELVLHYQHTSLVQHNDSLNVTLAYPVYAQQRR
Experimental: SPR binding experiments were collected on a Biacore 8K Instrument (Cytiva). Neutravidin (Pierce) was amine coupled to the carboxymethylated dextran surface of a CM5 sensor chip (Cytiva) using standard amine coupling chemistry. The CM5 chip surface was first activated with 0.1 M N-hydroxy succinimide and 0.4 M N-ethyl-N′-(3-dimethyl aminopropyl) carbodiimide at a flow rate of 20 μL/min using 20 mM HEPES pH 7.4, 150 mM NaCl as the running buffer. Next, neutravidin was diluted to 20 μg/mL in 10 mM sodium acetate (pH 4.5) and injected on all flow cells until a density of approximately 10,000 response units (RU) was immobilized. Activated amine groups were quenched with an injection of 1 M ethanolamine (pH 8.0). 300-500 RU of avi-tagged full length PI3Kα was captured on all flow cells in 20 mM HEPES pH 7.4, 150 mM NaCl, 5 mM MgCl2, 1 mM TCEP, 0.05% tween 20, 5% DMSO buffer. KRAS-Q25A at 20 μM was mixed with 8 concentrations of compound (50 nM-100 μM) and injected over the full-length PI3Kα at 30 μL/min and 25° C. Steady-state levels of KRAS binding were recorded and fit with a 4-parameter inhibition model to determine the IC50 values.

[3] = test system: pAKT in BT474 cells; assay: Cell-based pAKT HTRF assay in BT474 cells; details: BT474 cells, 4 hr incubation, Compounds 10-999, read-out: pAKT inhibition IC50 in BT474 cells
Method in brief: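 Compound titration: 3 μM downward in 3-fold steps, nine points, 4 hr on cells. Detection: lysis, then d2 plus Eu Cryptate antibody mix, room-temperature incubation of 4–24 h, and time-resolved fluorescence read at 615 nm.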

[4] = biological target: Cys242 in human PIK3CA (157-299) (Homo sapiens (Human), UniProt P42336); assay: Covalent modification assay using MALDI-TOF MS; format: biochemical; details: 4 h reaction time point; 3.33 μM protein target, 1:7.5 protein to compound ratio (compounds 1-852)
Cys242 in human PIK3CA (157-299), sequence (P42336 157-299): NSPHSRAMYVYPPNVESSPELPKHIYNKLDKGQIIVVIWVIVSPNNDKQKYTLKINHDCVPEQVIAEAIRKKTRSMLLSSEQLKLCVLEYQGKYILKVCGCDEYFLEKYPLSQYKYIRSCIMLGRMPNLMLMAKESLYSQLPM
Method in brief: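 PIK3CA (157-299) at 3.33 μM or 1 μM in 20 mM HEPES, 150 mM NaCl, 2 mM MgCl2, pH 7.3 was incubated with compound (from 10 mM DMSO stocks) in the dark at room temperature for 15 min, 30 min, 2 h or 4 h. Linear-mode MALDI-TOF peak heights gave percent modification.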

SMILES	IC50 [1]	IC50 [2]	IC50 ([3]; Homo sapiens, BT-474)	IC50 [3]	% of modification [4]
COCCOc1cc(F)ccc1-c1c(-c2cccc(C#N)c2)nc(-c2ccc3c(c2)CCNC3)c2ccsc12 [Compound 8]	> 10 µM	> 25 µM			
C=CC(=O)Nc1ccc2nc(-c3nc(-c4ccc5c(c4)CCNC5)c4ccsc4c3-c3ccc(F)cc3OCCOC)[nH]c2c1 [Compound 23, N-[2-[7-[4-fluoro-2-(2-methoxyethoxy)phenyl]-4-(1,2,3,4-tetrahydroisoquinolin-6-yl)thieno[3,2-c]pyridin-6-yl]-3H-benzimidazol-5-yl]prop-2-enamide]		> 25 µM	1 to 3 µM		A (percent of modification of PIK3CA protein ≥75%)
C=CC(=O)N1CCC(n2cc(-c3nc(-c4ccc5c(c4)CCNC5)c4ccsc4c3-c3ccc(F)cc3OCCOC)cn2)C1 (stereo not shown) [compound 28]		5 to 25 µM		< 0.1 µM	A (percent of modification of PIK3CA protein ≥75%)
C=CC(=O)n1cnc(-c2nc(-c3ccc4c(c3)CCNC4)c3ccsc3c2-c2ccc(F)cc2OCCOC)c1 [compound 35]		5 to 25 µM			D (percent of modification <25%)
C=CC(=O)NCc1csc(-c2nc(-c3ccc4c(c3)CCNC4)c3ccsc3c2-c2ccc(F)cc2OCCOC)n1 [compound 38]		5 to 25 µM			B (50%<percent of modification <75%)
COCCOc1cc(F)ccc1-c1c(-c2cnn(CCC(=O)NC(C)(C)C)c2)nc(-c2ccc3c(c2)CCNC3)c2ccsc12 [compound 41]	1 to 10 µM	5 to 25 µM			
COCCOc1cc(F)ccc1-c1c(-c2ccc3cc[nH]c3c2)nc(-c2ccc3c(c2)CCNC3)c2ccsc12 [compound 45]		5 to 25 µM			
C=CC(=O)N1CC(Cn2cc(-c3nc(-c4ccc5c(c4)CCNC5)c4ccsc4c3-c3ccc(F)cc3OCCOC)cn2)C1 [compound 48]	< 1 µM	5 to 25 µM			
C=CC(=O)N1CCC(n2cc(-c3nc(-c4cnn(C)c4)c4ccsc4c3-c3ccc(F)cc3OCCOC)cn2)CC1 [compound 49]		> 25 µM		0.1 to 1 µM	A (percent of modification of PIK3CA protein ≥75%)
C=CC(=O)N1CCC(n2cc(-c3nc(-c4ccc5c(c4)CNC(=O)C5)c4ccsc4c3-c3ccc(F)cc3OCCOC)cn2)CC1 [compound 50]		5 to 25 µM		< 0.1 µM	A (percent of modification of PIK3CA protein ≥75%)
C=CC(=O)Nc1cccc(-c2nc(-c3cnn(C)c3)c3ccsc3c2-c2ccc(F)cc2OCCOC)c1 [compound 52]		5 to 25 µM		0.1 to 1 µM	A (percent of modification of PIK3CA protein ≥75%)
C=CC(=O)N1CC[C@H](n2cc(-c3nc(-c4cnn(C)c4)c4ccsc4c3-c3ccc(F)cc3OCCOC)cn2)C1 [compound 53]		5 to 25 µM		0.1 to 1 µM	A (percent of modification of PIK3CA protein ≥75%)
C=CC(=O)N1CC[C@H](n2cc(-c3nc(-c4ccc5c(c4)CNC(=O)C5)c4ccsc4c3-c3ccc(F)cc3OCCOC)cn2)C1 [compound 54]		5 to 25 µM		< 0.1 µM	A (percent of modification of PIK3CA protein ≥75%)
C=CC(=O)NC1CC(n2cc(-c3nc(-c4ccc5c(c4)CCNC5)c4ccsc4c3-c3ccc(F)cc3OCCOC)cn2)C1 (stereo not shown) [compound 55]		5 to 25 µM		0.1 to 1 µM	A (percent of modification of PIK3CA protein ≥75%)
COCCOc1cc(F)ccc1-c1c(-c2cnn(C3CCN(C(=O)/C=C/CN(C)C)C3)c2)nc(-c2ccc3c(c2)CCNC3)c2ccsc12 (stereo not shown) [compound 56]		5 to 25 µM			B (50%<percent of modification <75%)
C=CC(=O)Nc1cccc(-c2nc(-c3ccc4c(c3)CCC(O)C4)c3ccsc3c2-c2ccc(F)cc2OCCOC)c1 (stereo not shown) [compound 57]		> 25 µM			B (50%<percent of modification <75%)
C=CC(=O)NC1CC(n2cc(-c3nc(-c4ccc5c(c4)CCNC5)c4ccsc4c3-c3ccc(F)cc3OCCOC)cn2)C1 (stereo not shown) [compound 60]		5 to 25 µM		0.1 to 1 µM	A (percent of modification of PIK3CA protein ≥75%)

More lines, main results first:

IC50 [1]	IC50 [2]	IC50 ([3]; Homo sapiens, BT-474)	IC50 [3]	SMILES	% of modification [4]
1 to 10 µM	5 to 25 µM			COCCOc1ccccc1-c1c(-c2cccc(Cl)c2)nc(-c2ccc3c(c2)CCNC3)c2ccsc12 [compound 6]	
1 to 10 µM	5 to 25 µM			Fc1ccc(-c2c(-c3ccccc3)nc(-c3ccc4c(c3)CCNC4)c3ccsc23)c(OCc2ncccc2F)c1 [compound 7]	
1 to 10 µM	5 to 25 µM			CCC(=O)NCc1cccc(-c2nc(-c3ccc4c(c3)CCNC4)c3ccsc3c2-c2ccc(F)cc2OCCOC)c1 [compound 9]	
1 to 10 µM	5 to 25 µM			COCCOc1cc(F)ccc1-c1c(-c2cnn(CC(C)(C)C)c2)nc(-c2ccc3c(c2)CCNC3)c2ccsc12 [compound 13]	
> 10 µM	5 to 25 µM			COCCOc1cc(F)ccc1-c1c(-c2cccc(CNC(=O)C(C)C)c2)nc(-c2ccc3c(c2)CCNC3)c2ccsc12 [compound 14]	
1 to 10 µM	< 5 µM			COCCOc1cc(F)ccc1-c1c(-c2cccc(C(=O)N3CCCC3)c2)nc(-c2ccc3c(c2)CCNC3)c2ccsc12 [compound 15]	
1 to 10 µM	5 to 25 µM			COCCOc1cc(F)ccc1-c1c(-c2cccc(CN)c2)nc(-c2ccc3c(c2)CCNC3)c2ccsc12 [compound 16]	
1 to 10 µM	5 to 25 µM			COCCOc1cc(F)ccc1-c1c(-c2cccc(C(=O)NC(C)C)c2)nc(-c2ccc3c(c2)CCNC3)c2ccsc12 [compound 17]	
1 to 10 µM	< 5 µM			COCCOc1cc(F)ccc1-c1c(-c2cccc(CNC(=O)C(C)(C)C)c2)nc(-c2ccc3c(c2)CCNC3)c2ccsc12 [compound 18]	
> 10 µM	< 5 µM			COCCOc1cc(F)ccc1-c1c(-c2cccc(CNC(=O)CC(C)(C)C)c2)nc(-c2ccc3c(c2)CCNC3)c2ccsc12 [compound 19]	
	5 to 25 µM			C=CC(=O)NCCn1cc(-c2nc(-c3ccc4c(c3)CCNC4)c3ccsc3c2-c2ccc(F)cc2OCCOC)cn1 [compound 22]	B (50%<percent of modification <75%)
1 to 10 µM	< 5 µM			CCC(=O)Nc1cccc(-c2nc(-c3ccc4c(c3)CCNC4)c3ccsc3c2-c2ccc(F)cc2OCCOC)c1 [compound 29]	
1 to 10 µM	< 5 µM			COCCOc1cc(F)ccc1-c1c(-c2cccc(NC(=O)C(C)C)c2)nc(-c2ccc3c(c2)CCNC3)c2ccsc12 [compound 33]	
	< 5 µM		< 0.1 µM	C=CC(=O)N1CC[C@H](n2cc(-c3nc(-c4ccc5c(c4)CCNC5)c4ccsc4c3-c3ccc(F)cc3OCCOC)c(C)n2)C1 [compound 59]	A (percent of modification of PIK3CA protein ≥75%)
	< 5 µM		> 3 µM	COCCOc1cc(F)ccc1-c1c(-c2ccc3c(c2)CCN(C)C3)nc(-c2ccc3c(c2)CCNC3)c2ccsc12 [compound 229]	
